Patent US20230250096A1, “SUBSTITUTED PHENYL-1H-PYRROLO[2,3-c] PYRIDINE DERIVATIVES” (Janssen Pharmaceutica NV, priority 2021, published 2023)

Legend:
[1] = molecular target: T1, menin/MLL (terbium chelate-labeled menin, FITC-MBM1 peptide) (Homo sapiens, UniProt O00255, T541A); test: Menin/MLL homogenous time-resolved fluorescence (HTRF) assay; format: binding; settings: 30 min incubation
T1 construct: Menin (a.a 1-610-6xhis tag, 2.3 mg/mL in 20 mM Hepes)
T1 sequence (O00255 with tags, fused parts or gaps T541A): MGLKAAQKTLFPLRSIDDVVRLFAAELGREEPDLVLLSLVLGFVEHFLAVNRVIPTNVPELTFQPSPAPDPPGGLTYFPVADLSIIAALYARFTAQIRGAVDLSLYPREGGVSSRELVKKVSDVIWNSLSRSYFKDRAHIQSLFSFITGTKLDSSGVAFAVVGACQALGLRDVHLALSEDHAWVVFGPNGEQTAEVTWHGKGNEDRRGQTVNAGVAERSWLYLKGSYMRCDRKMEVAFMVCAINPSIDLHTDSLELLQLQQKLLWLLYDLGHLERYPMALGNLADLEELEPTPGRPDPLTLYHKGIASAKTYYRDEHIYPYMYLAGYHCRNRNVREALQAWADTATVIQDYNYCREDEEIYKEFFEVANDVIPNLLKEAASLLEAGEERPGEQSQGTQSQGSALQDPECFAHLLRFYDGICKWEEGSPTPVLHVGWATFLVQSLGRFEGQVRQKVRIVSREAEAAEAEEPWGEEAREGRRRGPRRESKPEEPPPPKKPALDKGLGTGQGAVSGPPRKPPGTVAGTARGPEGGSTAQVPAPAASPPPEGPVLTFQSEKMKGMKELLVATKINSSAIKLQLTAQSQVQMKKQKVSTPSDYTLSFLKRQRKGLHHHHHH
Method in brief: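 Competition binding read by time-resolved FRET (FITC 520 nm over terbium 490 nm) after compound meets labeled menin 1-610-His […] for 30 min, then FITC-MBM1 (75 nM) for 15 min, ambient temperature, 0.5% DMSO. Eleven-point four-fold dilutions, usually starting at 10 μM, fitted to four-parameter curves for IC50.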

MEIS1 mRNA expression = MEIS1 mRNA expression assay (Quantigene Singleplex) in MOLM14 cells; format: cell-based, human; settings: 48 hours incubation
Method in brief: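 Read-out: MEIS1 transcript counts, background-subtracted and divided by RPL28, expressed as fold change over DMSO-treated cells, then dose-response modelled for IC50. MOLM14 cells (3,750/well) received graded compound for 48 h before lysis and QuantiGene hybridization at 55 °C.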

| SMILES | IC50 [1] | IC50 (MEIS1 mRNA expression; Homo sapiens, MOLM-14, 48 h) | IC50 (MEIS1 mRNA expression) |
| --- | --- | --- | --- |
| Cc1cncc2c1c(C[C@@H]1CCN(CC3CCN(C(=O)NC4CC4)CC3)C1)cn2-c1ccc(F)cc1C(=O)N(C)C(C)C [Compound 152] | 0.053 nM | 197 nM | – |
| CC(=O)N1CCC(CN2CCCC(Cc3cn(-c4ccc(F)cc4C(=O)N(C)C(C)C)c4cncc(C)c34)CC2)CC1 (stereo not shown) [Compound 160] | 4.02 nM | > 1000 nM | – |
| Cc1cncc2c1c(C[C@@H]1CCN(C[C@H]3CC[C@H](C(=O)N4CCC4)CC3)C1)cn2-c1ccc(F)cc1C(=O)N(C)C(C)C [Compound 179] | 0.405 nM | 259 nM | – |
| CC(=O)N1C[C@@H]2[C@@H](CN3CC[C@@H](Cc4cn(-c5ccc(F)cc5C(=O)N(C)C(C)C)c5cncc(C)c45)C3)[C@@H]2C1 [Compound 187] | 1.02 nM | 1940 nM | – |
| Cc1cncc2c1c(C[C@@H]1CCN(CC3CCCCC3)C1)cn2-c1ccc(F)cc1C(=O)N(C)C(C)C [Compound 193] | 0.071 nM | 41 nM | – |
| Cc1cncc2c1c(C[C@H]1CCN(CC3CCCCC3)C1)cn2-c1ccc(F)cc1C(=O)N(C)C(C)C [Compound 194] | 0.072 nM | 66 nM | – |
| Cc1cncc2c1c(CC1CCN(CC3CCC(=O)NC3)CC1)cn2-c1ccc(F)cc1C(=O)N(C)C(C)C (stereo not shown) [Compound 195] | 0.153 nM | 156 nM | – |
| Cc1cncc2c1c(CC1CN(CC3CNCC(=O)C3)C1)cn2-c1ccc(F)cc1C(=O)N(C)C(C)C (stereo not shown) [Compound 196] | 0.19 nM | 438 nM | – |
| CC(=O)NC1CCC(N2CC[C@H](Cc3cn(-c4ccc(F)cc4C(=O)N(C)C(C)C)c4cncc(C)c34)C2)CC1 (stereo partly shown) [Compound 210] | 0.602 nM | – | > 1000 nM |
| Cc1cncc2c1c(C[C@@H]1CCN(CC3(C)CCN(C(N)=O)CC3)C1)cn2-c1ccc(F)cc1C(=O)N(C)C(C)C [Compound 217] | 0.039 nM | 21 nM | – |
| Cc1cncc2c1c(C[C@H]1CCN(CC3(C)CCN(C(N)=O)CC3)C1)cn2-c1ccc(F)cc1C(=O)N(C)C(C)C [Compound 218] | 0.094 nM | 48 nM | – |
| Cc1cncc2c1c(CC1CN(CC3(C)CCN(C(N)=O)CC3)C1)cn2-c1ccc(F)cc1C(=O)N(C)C(C)C [Compound 219] | 0.039 nM | 32 nM | – |
| CC(=O)N1C[C@@H]2[C@H](CN3CC[C@@H](Cc4cn(-c5ccc(F)cc5C(=O)N(C)C(C)C)c5cncc(C)c45)C3)[C@@H]2C1 [Compound 220] | 0.932 nM | > 1000 nM | – |
| Cc1cncc2c1c(CC1CN(C[C@H]3CC[C@@H](C(=O)N(C)C)CC3)C1)cn2-c1ccc(F)cc1C(=O)N(C)C(C)C [Compound 221] | 0.311 nM | 109 nM | – |
| CC(=O)N1CC2CC1CC2N1CC[C@@H](Cc2cn(-c3ccc(F)cc3C(=O)N(C)C(C)C)c3cncc(C)c23)C1 (stereo partly shown) [Compound 223] | 0.239 nM | 279 nM | – |
| CC(=O)N1CCC(CN2CCC(Cc3cn(-c4ccc(F)cc4C(=O)N(C)C(C)C)c4cncc(C)c34)C2C)CC1 (stereo not shown) [Compound 226] | 0.255 nM | – | 269 nM |
| CC(=O)N1CCC(CN2CCC(Cc3cn(-c4ccc(F)cc4C(=O)N(C)C(C)C)c4cncc(C)c34)C2C)CC1 (stereo not shown) [Compound 227] | 0.655 nM | – | 551 nM |
| CC(=O)N1CCC(CN2CCC(Cc3cn(-c4ccc(F)cc4C(=O)N(C)C(C)C)c4cncc(C)c34)C2C)CC1 (stereo not shown) [Compound 229] | 0.235 nM | – | 93 nM |
| Cc1cncc2c1c(CC1CCN(CC3CCN(C(=O)N(C)C)CC3)CC1)cn2-c1ccc(F)cc1C(=O)N(C)C(C)C [Compound 235] | 0.097 nM | 14 nM | – |
| CNC(=O)[C@H]1CC[C@@H](CN2CC[C@H](Cc3cn(-c4ccc(F)cc4C(=O)N(C)C(C)C)c4cncc(C)c34)C2)CC1 [Compound 236] | 0.086 nM | ~98.9 nM | – |
| Cc1cncc2c1c(CC1CCN(CC3CCN(C(=O)C(C)(C)O)CC3)CC1)cn2-c1ccc(F)cc1C(=O)N(C)C(C)C [Compound 237] | 0.149 nM | 52 nM | – |

| SMILES | IC50 [1] | IC50 (MEIS1 mRNA expression; Homo sapiens, MOLM-14, 48 h) | IC50 (MEIS1 mRNA expression) |
| --- | --- | --- | --- |
| CC(=O)N1CCC(CN2CC[C@@H](Cc3cn(-c4ccc(F)cc4C(=O)NC(C)C)c4cncc(C)c34)C2)CC1 [Compound 238] | 1.94 nM | > 1000 nM | – |
| Cc1cncc2c1c(CC1(C)CCN(CC3CCOCC3)C1)cn2-c1ccc(F)cc1C(=O)N(C)C(C)C (stereo not shown) [Compound 239] | 0.305 nM | 138 nM | – |
| CNC(=O)[C@H]1CC[C@@H](CN2CC(Cc3cn(-c4ccc(F)cc4C(=O)N(C)C(C)C)c4cncc(C)c34)C2)CC1 [Compound 241] | 0.084 nM | 173 nM | – |
| CC(=O)N1CCC(C)C(N2CC[C@@H](Cc3cn(-c4ccc(F)cc4C(=O)N(C)C(C)C)c4cncc(C)c34)C2)C1 (stereo partly shown) [Compound 242] | 0.811 nM | – | > 1000 nM |
| CC(=O)N1CCC(C)C(N2CC[C@@H](Cc3cn(-c4ccc(F)cc4C(=O)N(C)C(C)C)c4cncc(C)c34)C2)C1 (stereo partly shown) [Compound 243] | 0.097 nM | – | 37 nM |
| Cc1cncc2c1c(C[C@H]1CCN(CC3CCN(C(=O)C(C)(C)O)CC3)C1)cn2-c1ccc(F)cc1C(=O)N(C)C(C)C [Compound 244] | 0.101 nM | 51 nM | – |
| Cc1cncc2c1c(C[C@H]1CCN(CC3CCN(C(=O)C4(O)CC4)CC3)C1)cn2-c1ccc(F)cc1C(=O)N(C)C(C)C [Compound 245] | 0.185 nM | 65 nM | – |
| Cc1cncc2c1c(C[C@@H]1CCN(CC3CCN(C(=O)C4(O)CC4)CC3)C1)cn2-c1ccc(F)cc1C(=O)N(C)C(C)C [Compound 249] | 0.023 nM | 7 nM | – |
| Cc1cncc2c1c(CC1CN(CC3CCN(C(=O)C(C)(C)O)CC3)C1)cn2-c1ccc(F)cc1C(=O)N(C)C(C)C [Compound 250] | 0.076 nM | 30 nM | – |
| Cc1cncc2c1c(CC1CN(CC3CCN(C(=O)C4(O)CC4)CC3)C1)cn2-c1ccc(F)cc1C(=O)N(C)C(C)C [Compound 251] | 0.066 nM | 83 nM | – |
| CCN(C(=O)c1cc(F)ccc1-n1cc(C[C@@H]2CCN(CC3CCN(C(C)=O)CC3)C2)c2c(C)cncc21)C(C)C [Compound 255] | 0.102 nM | 10 nM | – |
| CCN(C(=O)c1cc(F)ccc1-n1cc(C[C@H]2CCN(CC3CCN(C(C)=O)CC3)C2)c2c(C)cncc21)C(C)C [Compound 256] | 0.073 nM | 20 nM | – |
| CCN(C(=O)c1cc(F)ccc1-n1cc(C[C@@H]2CCN(CC3CCOCC3)C2)c2c(C)cncc21)C(C)C [Compound 257] | 0.031 nM | 7 nM | – |
| CC(=O)N1CCC(CN2CC[C@@H](Cc3cn(-c4ccc(F)cc4C(=O)N(C(C)C)C(C)C)c4cncc(C)c34)C2)CC1 [Compound 258] | 0.021 nM | 11 nM | – |
| CCc1cncc2c1c(C[C@@H]1CCN(CC3CCN(C(C)=O)CC3)C1)cn2-c1ccc(F)cc1C(=O)N(C)C(C)C [Compound 259] | 0.031 nM | 138 nM | – |
| CCc1cncc2c1c(C[C@H]1CCN(CC3CCN(C(C)=O)CC3)C1)cn2-c1ccc(F)cc1C(=O)N(C)C(C)C [Compound 260] | 0.042 nM | ~27.6 nM | – |
| Cc1cncc2c1c(CC1CN(CC3CCOCC3)C1)cn2-c1ccc(F)cc1C(=O)N1CCC12CCC2 [Compound 261] | 0.213 nM | 217 nM | – |
| Cc1cncc2c1c(CC1CN(CC3CCOCC3)C1)cn2-c1ccc(F)cc1C(=O)N1C2COCC1C2 [Compound 263] | 0.258 nM | 175 nM | – |
| Cc1cncc2c1c(CC1CN(CC3CCOCC3)C1)cn2-c1ccc(F)cc1C(=O)N(C)C1CC1 [Compound 265] | 0.097 nM | 46 nM | – |
| Cc1cncc2c1c(CC1CN(CC3CCOCC3)C1)cn2-c1ccc(F)cc1C(=O)N1CCC12COC2 [Compound 266] | 0.349 nM | 431 nM | – |
